Experimental data taken from US6706740B2, “Fungicidal heterocyclic aromatic amides and their compositions, methods of use and preparation” (Dow AgroSciences LLC, priority 1999, dated 2004).
Like-named read-outs stand apart in the source and are kept apart here.

Columns and labels:
[1] = test system: Phytophthora infestans—PHYTIN; assay: whole plant or invertebrate; assay type: in vivo; settings: Phytophthora, in Solanum lycopersicum, 24 h, read-out: PHYTIN in vivo 1 Day Protectant
[2] = test system: Mycosphaerella graminicola (Septoria tritici—SEPTTR); assay: In vitro fungal growth inhibition, Mycosphaerella graminicola (SEPTTR); assay type: cell-based; settings: Zymoseptoria tritici, read-out: SEPTTR in vitro Growth Inhibition
[3] = test system: Leptosphaeria nodorum—LEPTNO; assay: Glume Blotch of Wheat, in vivo whole plant, 24 Hour Protectant; settings: for pest or weed control at 100 ppm: Leptosphaeria, read-out: LEPTNO in vivo 1 Day Protectant
[4] = test system: Ustilago maydis (USTIMA); assay: microbe, parasite or virus in culture; assay type: cell-based; settings: Mycosarcoma maydis, read-out: USTIMA in vitro Growth Inhibition
[5] = test system: Puccinia recondita—PUCCRT; assay: Brown Rust of Wheat, in vivo whole plant, 24 Hour Protectant; settings: for pest or weed control at 100 ppm: Puccinia, read-out: PUCCRT in vivo 1 Day Protectant
[6] = test system: Stagonospora nodorum (Leptosphaeria nodorum—LEPTNO); assay: In vitro fungal growth inhibition, Stagonospora nodorum (LEPTNO); assay type: cell-based; settings: Leptosphaeria, read-out: LEPTNO in vitro Growth Inhibition
[7] = test system: Septoria tritici—SEPTTR; assay: Leaf Blotch of Wheat, in vivo whole plant, 24 Hour Protectant; settings: Zymoseptoria tritici, 24 h, read-out: SEPTTR in vivo 1 Day Protectant
[8] = test system: Magnaporthe grisea (Pyricularia oryzae—PYRIOR); assay: microbe, parasite or virus in culture; assay type: cell-based; settings: Pyricularia oryzae, read-out: PYRIOR in vitro Growth Inhibition
[9] = test system: Erysiphe graminis—ERYSGT; assay: Powdery Mildew of Wheat, in vivo whole plant, 24 Hour Protectant; settings: for pest or weed control at 100 ppm: Erysiphe, read-out: ERYSGT in vivo 1 Day Protectant
[10] = test system: Phytophthora infestans (PHYTIN); assay: microbe, parasite or virus in culture; assay type: cell-based; settings: Phytophthora infestans, read-out: PHYTIN in vitro Growth Inhibition
[11] = test system: Rhizoctonia solani (RHIZSO); assay: microbe, parasite or virus in culture; assay type: cell-based; settings: Rhizoctonia solani, read-out: RHIZSO in vitro Growth Inhibition
[12] = 100 ppm spray, 24 hour protectant, wheat, control of fungal infection vs untreated plants
[13] = wheat plants sprayed at 100 ppm, inoculated after 24 hours, control of fungal infection vs untreated plants
[14] = 100 ppm spray, wheat, 24 hour protectant, % control of fungal infection vs untreated plants
[15] = 100 ppm spray, wheat, 24 hour protectant, control of fungal infection vs untreated plants

| Structure (SMILES) | pest or weed control at 100 ppm [1] [%] | inhibition at 25 ppm ([2]; 25 ppm in growth medium) [%] | inhibition at 25 ppm [4] [%] | inhibition at 25 ppm ([6]; 25 ppm in growth medium) [%] | melting point [°C] | inhibition at 25 ppm [8] [%] | inhibition at 25 ppm [10] [%] | inhibition at 25 ppm [11] [%] | pest or weed control at 100 ppm [9, 14] [%] | also measured |
| --- | --- | --- | --- | --- | --- | --- | --- | --- | --- | --- |
| CC(C)C(=O)OC1CCC(NC(=O)c2ncccc2O)CC1 (stereo not shown) [Compound 210] | < 25 | < 80 | < 80 | < 80 | 139 to 142 | < 80 | < 80 | < 80 | – | pest or weed control at 100 ppm [3, 12]: < 25%; pest or weed control at 100 ppm [5, 12]: < 25%; pest or weed control at 100 ppm [7, 12]: 25 to 74%; pest or weed control at 100 ppm [9, 12]: < 25% |
| CC(C)(C)C1CCC(NC(=O)c2cnccc2O)CC1 (stereo not shown) [Compound 504] | < 25 | – | < 80 | – | 70 to 78 | < 80 | < 80 | < 80 | – | inhibition at 25 ppm ([2]; 25 ppm in the growth medium): < 80%; pest or weed control at 100 ppm [3, 13]: 25 to 74%; pest or weed control at 100 ppm [5, 13]: < 25%; inhibition at 25 ppm ([6]; 25 ppm in the growth medium): > 80%; pest or weed control at 100 ppm [7, 13]: < 25%; pest or weed control at 100 ppm [9, 13]: < 25% |
| COc1ccnc(C(=O)Nc2ccc(C(=O)Oc3cccc(C(F)(F)F)c3)cc2)c1OC(C)=O [Compound 715] | < 25 | < 80 | < 80 | < 80 | 166 to 169 | < 80 | < 80 | < 80 | < 25 | pest or weed control at 100 ppm [3, 14]: 25 to 74%; pest or weed control at 100 ppm [5, 14]: 25 to 74%; pest or weed control at 100 ppm [7, 14]: < 25% |
| COc1ccnc(C(=O)Nc2ccc(Oc3ccc(OC(=O)C(C)C)cc3)cc2)c1O [Compound 436] | < 25 | < 80 | < 80 | < 80 | 109 to 110.5 | < 80 | < 80 | < 80 | – | pest or weed control at 100 ppm [3, 15]: 25 to 74%; pest or weed control at 100 ppm [5, 15]: < 25%; pest or weed control at 100 ppm [7, 15]: 25 to 74%; pest or weed control at 100 ppm [9, 15]: < 25% |
| CC1(C)CC(NC(=O)c2cn(-c3ccccc3)nc2O)CC(C)(C)C1 [Compound 559] | < 25 | – | < 80 | – | 215 to 217 | < 80 | < 80 | < 80 | – | inhibition at 25 ppm ([2]; 25 ppm in the growth medium): < 80%; pest or weed control at 100 ppm [3, 13]: 25 to 74%; pest or weed control at 100 ppm [5, 13]: 25 to 74%; inhibition at 25 ppm ([6]; 25 ppm in the growth medium): < 80%; pest or weed control at 100 ppm [7, 13]: < 25%; pest or weed control at 100 ppm [9, 13]: < 25% |
| Cc1ccc(C(=O)N[C@H]2COC(=O)[C@H](Cc3ccccc3)[C@@H](OC(=O)C(C)C)[C@H](C)OC2=O)c(O)n1 [Compound 525] | < 25 | – | < 80 | – | 247 to 250 | < 80 | < 80 | < 80 | – | inhibition at 25 ppm ([2]; 25 ppm in the growth medium): < 80%; LEPTNO in vivo 1 Day Protectant [3, 13]: + +; pest or weed control at 100 ppm [5, 13]: 25 to 74%; inhibition at 25 ppm ([6]; 25 ppm in the growth medium): < 80%; pest or weed control at 100 ppm [7, 13]: 25 to 74%; pest or weed control at 100 ppm [9, 13]: < 25% |
| COc1ccnc(C(=O)N[C@H]2COC(=O)[C@H](Cc3ccccc3)[C@@H](OC(=O)C(C)C)[C@H](C)OC2=O)c1OS(=O)(=O)c1ccc(C)cc1 [Compound 722] | < 25 | < 80 | < 80 | < 80 | 153 to 155 | < 80 | < 80 | < 80 | < 25 | LEPTNO in vivo 1 Day Protectant [3, 14]: + +; pest or weed control at 100 ppm [5, 14]: 25 to 74% |
| COc1ccnc(C(=O)N[C@H]2COC(=O)[C@H](Cc3ccccc3)[C@@H](OC(=O)C(C)C)[C@H](C)OC2=O)c1OC(=O)C(C)C [Compound 602] | < 25 | < 80 | < 80 | > 80 | 160 to 161 | < 80 | < 80 | < 80 | < 25 | – |
| COc1ccnc(C(=O)Nc2ccc(Oc3ccc(C(F)(F)F)cc3)cc2)c1OS(C)(=O)=O [Compound 723] | 25 to 74 | < 80 | < 80 | < 80 | 177 to 180 | < 80 | < 80 | < 80 | < 25 | pest or weed control at 100 ppm [3, 14]: 25 to 74%; pest or weed control at 100 ppm [5, 14]: 25 to 74% |
| COc1ccnc(C(=O)N[C@H]2COC(=O)[C@H](Cc3ccccc3)[C@@H](OC(=O)C(C)C)[C@H](C)OC2=O)c1OS(C)(=O)=O [Compound 721] | < 25 | < 80 | < 80 | > 80 | 189 to 194 | < 80 | < 80 | < 80 | < 25 | LEPTNO in vivo 1 Day Protectant [3, 14]: + +; PUCCRT in vivo 1 Day Protectant [5, 14]: + + |
| COc1ccnc(C(=O)NC2CCN(Cc3cccc(C(F)(F)F)c3)CC2)c1O.O=C(O)/C=C\C(=O)O.O=C(O)/C=C\C(=O)O [Compound 307] | < 25 | – | < 80 | – | 168 to 170 | < 80 | < 80 | < 80 | – | inhibition at 25 ppm [2]: < 80%; pest or weed control at 100 ppm ([3]; 24 h): < 25%; pest or weed control at 100 ppm ([5]; 24 h): < 25%; inhibition at 25 ppm [6]: < 80%; pest or weed control at 100 ppm ([9]; 24 h): 25 to 74% |
| COc1ccnc(C(=O)Nc2ccc(Oc3ccc(C(F)(F)F)cc3)cc2)c1OC(C)=O [Compound 709] | < 25 | > 80 | > 80 | > 80 | 165 to 166 | > 80 | < 80 | > 80 | – | LEPTNO in vivo 1 Day Protectant [3, 14]: + +; pest or weed control at 100 ppm [5, 14]: < 25%; ERYSGT in vivo 1 Day Protectant [9, 14]: + + |
| O=C(NC1CCCCCCC1)c1ncccc1O [Compound 203] | – | > 80 | < 80 | > 80 | 63 to 64 | > 80 | < 80 | > 80 | – | – |
| COc1ccnc(C(=O)Nc2cccc(Oc3ccccc3C)c2)c1O [Compound 412] | < 25 | > 80 | < 80 | > 80 | – | > 80 | < 80 | < 80 | – | pest or weed control at 100 ppm [3, 15]: < 25%; pest or weed control at 100 ppm [5, 15]: 25 to 74%; pest or weed control at 100 ppm [7, 15]: < 25%; pest or weed control at 100 ppm [9, 15]: < 25% |
